{"source": "the kinase profiling compilation of Christmann-Franck et al. (2016)", "assay_in_all_cases": "KINOMEscan competition binding", "key": {"CDC42BPB (human)": {"target": "CDC42BPB (human) (UniProt Q9Y5S2)"}, "SRC (human)": {"target": "SRC (human) (UniProt P12931)"}, "GSK3B (human)": {"target": "GSK3B (human) (UniProt P49841)"}, "EPHA8 (human)": {"target": "EPHA8 (human) (UniProt P29322)", "sequence (P29322 whole entry, looked up)": "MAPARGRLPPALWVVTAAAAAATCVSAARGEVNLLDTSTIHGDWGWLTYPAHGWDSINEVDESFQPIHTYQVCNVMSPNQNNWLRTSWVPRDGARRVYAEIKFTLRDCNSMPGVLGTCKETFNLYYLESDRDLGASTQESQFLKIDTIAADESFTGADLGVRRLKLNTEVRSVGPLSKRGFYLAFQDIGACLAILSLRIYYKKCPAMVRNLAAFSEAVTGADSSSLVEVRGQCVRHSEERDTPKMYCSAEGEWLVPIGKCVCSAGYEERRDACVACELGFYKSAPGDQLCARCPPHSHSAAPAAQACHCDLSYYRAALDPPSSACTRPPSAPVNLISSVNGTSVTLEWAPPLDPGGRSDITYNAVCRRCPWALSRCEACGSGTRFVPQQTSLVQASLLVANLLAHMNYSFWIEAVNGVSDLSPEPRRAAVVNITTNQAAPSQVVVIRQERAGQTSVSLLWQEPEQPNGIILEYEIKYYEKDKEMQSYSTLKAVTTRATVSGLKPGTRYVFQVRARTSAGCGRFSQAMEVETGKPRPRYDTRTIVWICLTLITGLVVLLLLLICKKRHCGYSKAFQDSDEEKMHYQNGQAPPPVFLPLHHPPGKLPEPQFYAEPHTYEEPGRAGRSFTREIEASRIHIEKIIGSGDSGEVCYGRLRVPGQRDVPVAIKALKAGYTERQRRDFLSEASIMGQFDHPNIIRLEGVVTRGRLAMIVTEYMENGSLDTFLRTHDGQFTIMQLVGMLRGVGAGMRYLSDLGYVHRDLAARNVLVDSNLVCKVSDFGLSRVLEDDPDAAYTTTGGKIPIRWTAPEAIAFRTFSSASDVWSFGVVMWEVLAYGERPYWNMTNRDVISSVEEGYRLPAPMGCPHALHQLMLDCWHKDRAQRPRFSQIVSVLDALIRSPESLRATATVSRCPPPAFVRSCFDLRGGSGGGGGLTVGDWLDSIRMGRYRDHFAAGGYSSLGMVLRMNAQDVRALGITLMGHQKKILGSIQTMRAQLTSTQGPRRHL"}, "PRKD3 (human)": {"target": "PRKD3 (human) (UniProt O94806)"}, "STK10 (human)": {"target": "STK10 (human) (UniProt O94804)"}, "STK36 (human)": {"target": "STK36 (human) (UniProt Q9NRP7)"}, "TYRO3 (human)": {"target": "TYRO3 (human) (UniProt Q06418)"}, "PTK2 (human)": {"target": "PTK2 (human) (UniProt Q05397)"}, "FLT3 (human)": {"target": "FLT3 (human) (UniProt P36888)"}, "PDGFRA (human)": {"target": "PDGFRA (human) (UniProt P16234)", "sequence (P16234 whole entry, looked up)": "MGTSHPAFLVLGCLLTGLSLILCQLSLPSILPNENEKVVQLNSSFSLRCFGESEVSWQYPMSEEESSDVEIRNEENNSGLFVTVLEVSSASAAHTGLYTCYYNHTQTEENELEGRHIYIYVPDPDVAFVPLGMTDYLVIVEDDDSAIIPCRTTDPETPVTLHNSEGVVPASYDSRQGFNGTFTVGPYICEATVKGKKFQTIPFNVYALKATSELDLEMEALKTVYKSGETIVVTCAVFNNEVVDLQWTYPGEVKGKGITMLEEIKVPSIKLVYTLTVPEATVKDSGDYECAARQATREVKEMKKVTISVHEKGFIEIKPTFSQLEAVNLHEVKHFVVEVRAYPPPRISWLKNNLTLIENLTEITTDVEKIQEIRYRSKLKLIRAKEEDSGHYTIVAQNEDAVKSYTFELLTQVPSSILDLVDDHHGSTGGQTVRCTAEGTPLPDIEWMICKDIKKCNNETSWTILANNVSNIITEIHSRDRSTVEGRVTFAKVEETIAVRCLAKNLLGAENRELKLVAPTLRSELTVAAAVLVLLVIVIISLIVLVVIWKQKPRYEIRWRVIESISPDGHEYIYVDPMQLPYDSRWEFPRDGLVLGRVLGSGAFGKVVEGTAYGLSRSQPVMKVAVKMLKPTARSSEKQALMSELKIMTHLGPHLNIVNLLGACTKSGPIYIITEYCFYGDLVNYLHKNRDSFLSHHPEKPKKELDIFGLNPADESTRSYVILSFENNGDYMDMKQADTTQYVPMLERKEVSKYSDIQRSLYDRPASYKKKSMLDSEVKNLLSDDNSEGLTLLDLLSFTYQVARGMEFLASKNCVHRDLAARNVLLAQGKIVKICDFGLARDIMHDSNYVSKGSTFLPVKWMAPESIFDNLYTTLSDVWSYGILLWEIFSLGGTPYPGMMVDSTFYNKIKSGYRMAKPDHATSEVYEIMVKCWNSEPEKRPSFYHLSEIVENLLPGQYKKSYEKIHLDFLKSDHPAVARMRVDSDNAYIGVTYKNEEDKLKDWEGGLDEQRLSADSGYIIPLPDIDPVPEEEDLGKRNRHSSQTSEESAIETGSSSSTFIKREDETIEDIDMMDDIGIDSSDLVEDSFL"}, "RPS6KA4 KD2 (human)": {"target": "RPS6KA4 KD2 (human) (UniProt O75676)", "sequence (O75676 whole entry, looked up)": "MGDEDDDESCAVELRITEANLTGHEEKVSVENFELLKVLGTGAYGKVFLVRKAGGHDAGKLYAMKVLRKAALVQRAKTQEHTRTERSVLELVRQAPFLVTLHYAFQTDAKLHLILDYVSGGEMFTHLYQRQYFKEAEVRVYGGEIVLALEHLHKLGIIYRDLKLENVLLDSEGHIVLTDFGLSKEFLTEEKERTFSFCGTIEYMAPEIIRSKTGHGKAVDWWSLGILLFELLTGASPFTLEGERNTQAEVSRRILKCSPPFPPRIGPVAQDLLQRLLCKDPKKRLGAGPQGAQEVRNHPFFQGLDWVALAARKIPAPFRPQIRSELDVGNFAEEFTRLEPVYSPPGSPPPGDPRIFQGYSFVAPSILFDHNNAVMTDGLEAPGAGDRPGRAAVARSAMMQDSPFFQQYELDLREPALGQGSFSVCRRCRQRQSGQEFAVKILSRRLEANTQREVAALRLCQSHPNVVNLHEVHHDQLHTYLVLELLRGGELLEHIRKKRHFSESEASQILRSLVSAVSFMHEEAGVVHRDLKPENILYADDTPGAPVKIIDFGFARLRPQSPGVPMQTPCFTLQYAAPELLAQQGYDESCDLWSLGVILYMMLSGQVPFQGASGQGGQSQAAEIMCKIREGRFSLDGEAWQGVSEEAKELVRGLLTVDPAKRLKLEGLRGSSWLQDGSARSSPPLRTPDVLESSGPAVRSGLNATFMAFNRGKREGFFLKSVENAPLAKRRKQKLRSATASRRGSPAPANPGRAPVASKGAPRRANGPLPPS"}, "EPHA6 (human)": {"target": "EPHA6 (human) (UniProt Q9UF33)"}, "[1]": {"target": "PIK3CA (human), P42336 [E545K]"}, "[2]": {"target": "MET (human), P08581 [Y1235D]"}, "CSF1R (human)": {"target": "CSF1R (human) (UniProt P07333)"}, "[3]": {"target": "PIK3CA (human), P42336 [Q546K]"}, "AURKC (human)": {"target": "AURKC (human) (UniProt Q9UQB9)"}, "DDR2 (human)": {"target": "DDR2 (human) (UniProt Q16832)", "sequence (Q16832 whole entry, looked up)": "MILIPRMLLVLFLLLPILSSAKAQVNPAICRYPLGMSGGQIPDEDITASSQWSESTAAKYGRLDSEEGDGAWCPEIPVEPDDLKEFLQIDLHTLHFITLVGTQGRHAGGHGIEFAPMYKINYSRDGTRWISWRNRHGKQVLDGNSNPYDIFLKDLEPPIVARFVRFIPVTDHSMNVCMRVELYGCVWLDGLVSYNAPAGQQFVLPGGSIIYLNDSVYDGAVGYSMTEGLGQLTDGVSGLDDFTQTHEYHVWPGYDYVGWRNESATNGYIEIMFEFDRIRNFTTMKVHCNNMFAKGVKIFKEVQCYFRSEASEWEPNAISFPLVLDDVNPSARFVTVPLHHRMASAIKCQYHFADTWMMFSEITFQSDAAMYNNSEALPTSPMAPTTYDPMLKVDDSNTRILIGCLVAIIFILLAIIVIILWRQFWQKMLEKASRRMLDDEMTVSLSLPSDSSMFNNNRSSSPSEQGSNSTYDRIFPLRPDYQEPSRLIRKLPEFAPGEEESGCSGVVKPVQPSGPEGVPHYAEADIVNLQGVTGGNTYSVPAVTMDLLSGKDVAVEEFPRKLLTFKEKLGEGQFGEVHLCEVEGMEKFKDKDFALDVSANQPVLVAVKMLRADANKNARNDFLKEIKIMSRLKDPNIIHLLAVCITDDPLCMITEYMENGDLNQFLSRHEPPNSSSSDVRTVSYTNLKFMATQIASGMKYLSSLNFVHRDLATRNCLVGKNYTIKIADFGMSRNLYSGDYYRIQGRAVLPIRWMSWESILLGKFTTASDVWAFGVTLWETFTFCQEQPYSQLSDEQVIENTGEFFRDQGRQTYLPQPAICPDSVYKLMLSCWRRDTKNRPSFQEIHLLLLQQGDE"}, "IRAK3 (human)": {"target": "IRAK3 (human) (UniProt Q9Y616)"}, "[4]": {"target": "ABL1 (human), P00519 [M351T]"}, "EPHA7 (human)": {"target": "EPHA7 (human) (UniProt Q15375)"}, "CSNK1G1 (human)": {"target": "CSNK1G1 (human) (UniProt Q9HCP0)"}, "MAP2K4 (human)": {"target": "MAP2K4 (human) (UniProt P45985)"}, "PRKCQ (human)": {"target": "PRKCQ (human) (UniProt Q04759)"}, "[5]": {"target": "PIK3CA (human), P42336 [C420R]"}, "MET (human)": {"target": "MET (human) (UniProt P08581)"}, "AURKB (human)": {"target": "AURKB (human) (UniProt Q96GD4)"}, "NEK5 (human)": {"target": "NEK5 (human) (UniProt Q6P3R8)", "sequence (Q6P3R8 whole entry, looked up)": "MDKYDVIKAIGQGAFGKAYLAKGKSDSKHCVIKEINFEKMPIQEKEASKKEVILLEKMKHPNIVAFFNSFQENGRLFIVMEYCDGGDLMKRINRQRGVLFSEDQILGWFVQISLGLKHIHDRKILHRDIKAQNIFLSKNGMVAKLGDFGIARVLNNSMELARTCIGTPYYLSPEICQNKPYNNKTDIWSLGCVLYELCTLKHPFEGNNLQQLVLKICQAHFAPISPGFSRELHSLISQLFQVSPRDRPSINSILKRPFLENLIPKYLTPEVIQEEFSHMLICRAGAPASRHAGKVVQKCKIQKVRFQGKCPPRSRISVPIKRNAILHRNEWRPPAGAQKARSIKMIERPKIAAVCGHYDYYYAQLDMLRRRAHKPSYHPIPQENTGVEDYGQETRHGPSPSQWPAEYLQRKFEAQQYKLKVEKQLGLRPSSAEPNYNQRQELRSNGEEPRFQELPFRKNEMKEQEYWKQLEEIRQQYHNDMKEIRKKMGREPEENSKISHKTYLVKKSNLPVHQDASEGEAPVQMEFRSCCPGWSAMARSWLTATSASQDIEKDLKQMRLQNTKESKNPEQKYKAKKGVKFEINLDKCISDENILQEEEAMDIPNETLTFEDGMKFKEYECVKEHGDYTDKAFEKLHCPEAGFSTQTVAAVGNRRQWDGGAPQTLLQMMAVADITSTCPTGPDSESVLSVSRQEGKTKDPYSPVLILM"}, "HIPK4 (human)": {"target": "HIPK4 (human) (UniProt Q8NE63)"}, "HUNK (human)": {"target": "HUNK (human) (UniProt P57058)"}, "CDK7 (human)": {"target": "CDK7 (human) (UniProt P50613)"}, "MAPK13 (human)": {"target": "MAPK13 (human) (UniProt O15264)"}, "PRKD2 (human)": {"target": "PRKD2 (human) (UniProt Q9BZL6)"}, "[6]": {"target": "ABL1 (human), P00519 [Y253F]"}, "HCK (human)": {"target": "HCK (human) (UniProt P08631)"}, "TNNI3K (human)": {"target": "TNNI3K (human) (UniProt Q59H18)"}, "MAP3K10 (human)": {"target": "MAP3K10 (human) (UniProt Q02779)"}, "BLK (human)": {"target": "BLK (human) (UniProt P51451)", "sequence (P51451 whole entry, looked up)": "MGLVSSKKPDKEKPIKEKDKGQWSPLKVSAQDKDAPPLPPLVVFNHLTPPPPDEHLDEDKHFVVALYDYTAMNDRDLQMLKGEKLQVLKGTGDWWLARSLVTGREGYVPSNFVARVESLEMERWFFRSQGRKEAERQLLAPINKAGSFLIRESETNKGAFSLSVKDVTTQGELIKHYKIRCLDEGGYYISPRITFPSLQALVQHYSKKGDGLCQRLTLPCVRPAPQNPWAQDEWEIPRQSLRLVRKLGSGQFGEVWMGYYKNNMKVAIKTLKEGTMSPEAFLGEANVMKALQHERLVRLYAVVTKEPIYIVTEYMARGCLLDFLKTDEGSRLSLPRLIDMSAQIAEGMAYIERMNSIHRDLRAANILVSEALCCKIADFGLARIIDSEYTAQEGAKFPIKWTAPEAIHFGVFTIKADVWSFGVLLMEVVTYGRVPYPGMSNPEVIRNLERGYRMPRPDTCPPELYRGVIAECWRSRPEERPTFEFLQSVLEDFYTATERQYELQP"}, "[7]": {"target": "EIF2AK4 KD2 (human), Q9P2K8 [S808G]"}}}
{"smiles": "COc1cc2ncnc(Oc3cccc(NC(=O)Nc4cc(C(C)(C)C(F)(F)F)on4)c3)c2cc1OC", "values": [{"measurement": "Kd", "setting": "CDC42BPB (human)", "value": 2, "unit": "µM"}, {"measurement": "Kd", "setting": "SRC (human)", "value": 0.099, "unit": "µM"}, {"measurement": "Kd", "setting": "GSK3B (human)", "value": 29, "unit": "µM"}, {"measurement": "Kd", "setting": "EPHA8 (human)", "value": 0.014, "unit": "µM"}, {"measurement": "Kd", "setting": "PRKD3 (human)", "value": 6.3, "unit": "µM"}, {"measurement": "Kd", "setting": "STK10 (human)", "value": 0.0017, "unit": "µM"}, {"measurement": "Kd", "setting": "STK36 (human)", "value": 4.7, "unit": "µM"}, {"measurement": "Kd", "setting": "TYRO3 (human)", "value": 1.5, "unit": "µM"}, {"measurement": "Kd", "setting": "PTK2 (human)", "value": 7.5, "unit": "µM"}, {"measurement": "Kd", "setting": "FLT3 (human)", "value": 0.0042, "unit": "µM"}, {"measurement": "Kd", "setting": "PDGFRA (human)", "value": 0.0054, "unit": "µM"}, {"measurement": "Kd", "setting": "RPS6KA4 KD2 (human)", "value": 36, "unit": "µM"}, {"measurement": "Kd", "setting": "EPHA6 (human)", "value": 0.0055, "unit": "µM"}, {"measurement": "Kd", "setting": "[1]", "value": 29, "unit": "µM"}, {"measurement": "Kd", "setting": "[2]", "value": 0.26, "unit": "µM"}, {"measurement": "Kd", "setting": "CSF1R (human)", "value": 0.0086, "unit": "µM"}, {"measurement": "Kd", "setting": "[3]", "value": 28, "unit": "µM"}, {"measurement": "Kd", "setting": "AURKC (human)", "value": 10, "unit": "µM"}, {"measurement": "Kd", "setting": "DDR2 (human)", "value": 0.0054, "unit": "µM"}, {"measurement": "Kd", "setting": "IRAK3 (human)", "value": 1.4, "unit": "µM"}, {"measurement": "Kd", "setting": "[4]", "value": 0.0032, "unit": "µM"}, {"measurement": "Kd", "setting": "EPHA7 (human)", "value": 0.071, "unit": "µM"}, {"measurement": "Kd", "setting": "CSNK1G1 (human)", "value": 36, "unit": "µM"}, {"measurement": "Kd", "setting": "MAP2K4 (human)", "value": 18, "unit": "µM"}, {"measurement": "Kd", "setting": "PRKCQ (human)", "value": 13, "unit": "µM"}, {"measurement": "Kd", "setting": "[5]", "value": 30, "unit": "µM"}, {"measurement": "Kd", "setting": "MET (human)", "value": 0.51, "unit": "µM"}, {"measurement": "Kd", "setting": "AURKB (human)", "value": 25, "unit": "µM"}, {"measurement": "Kd", "setting": "NEK5 (human)", "value": 28, "unit": "µM"}, {"measurement": "Kd", "setting": "HIPK4 (human)", "value": 0.034, "unit": "µM"}, {"measurement": "Kd", "setting": "HUNK (human)", "value": 12, "unit": "µM"}, {"measurement": "Kd", "setting": "CDK7 (human)", "value": 0.52, "unit": "µM"}, {"measurement": "Kd", "setting": "MAPK13 (human)", "value": 0.39, "unit": "µM"}, {"measurement": "Kd", "setting": "PRKD2 (human)", "value": 19, "unit": "µM"}, {"measurement": "Kd", "setting": "[6]", "value": 0.003, "unit": "µM"}, {"measurement": "Kd", "setting": "HCK (human)", "value": 0.013, "unit": "µM"}, {"measurement": "Kd", "setting": "TNNI3K (human)", "value": 0.028, "unit": "µM"}, {"measurement": "Kd", "setting": "MAP3K10 (human)", "value": 5.6, "unit": "µM"}, {"measurement": "Kd", "setting": "BLK (human)", "value": 0.0076, "unit": "µM"}, {"measurement": "Kd", "setting": "[7]", "value": 4.4, "unit": "µM"}]}
